Biological target: T1, TNFα / TNFα receptor (TNFα R1/Fc) (Homo sapiens, UniProt P01375)
T1 construct: purchased R&D Systems
Assay: Inhibition of binding of TNFα to the TNFα receptor (plate ELISA competition)
Conditions: Activity (IC50, inhibition of TNFα binding to TNFα R1/Fc), Table 2
How it was run: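 Plates were coated with TNFα at 15 nM. Test compound and 8.33 nM receptor-Fc (PBST, 2% DMSO) were first mixed in solution for 30 min at room temperature, then transferred to the plates for another 30 min. Competition was read by absorbance at 450 nm after HRP anti-human IgG Fc detection with TMB.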

T1 sequence (P01375 77-233 limits assumed, species assumed): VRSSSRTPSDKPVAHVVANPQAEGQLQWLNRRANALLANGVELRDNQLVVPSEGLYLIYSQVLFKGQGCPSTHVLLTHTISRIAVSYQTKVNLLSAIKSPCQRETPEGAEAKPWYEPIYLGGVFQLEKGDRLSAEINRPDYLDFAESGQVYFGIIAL

Row | SMILES | IC50 [µM]
1 | O=C1COc2ccc(cc2)C[C@@H](C(=O)N[C@H](Cc2ccccc2)C(=O)O)NC(=O)[C@H](Cc2cccs2)NC(=O)[C@@H](Cc2ccc(-c3ccccc3)cc2)NC(=O)[C@H](Cc2cccs2)N1 [Compound 588] | < 10
2 | O=C1COc2ccc(cc2)C[C@@H](C(=O)N[C@@H](Cc2ccccc2)c2nnn[nH]2)NC(=O)[C@H](Cc2ccccc2)NC(=O)[C@@H](Cc2ccc(-c3ccccc3)cc2)NC(=O)[C@H](Cc2cccs2)N1 [Compound 590] | < 10
3 | O=C1COc2ccc(cc2)C[C@@H](C(=O)NCc2nnn[nH]2)NC(=O)[C@H](Cc2ccccc2)NC(=O)[C@@H](Cc2ccc(-c3ccccc3)cc2)NC(=O)[C@H](Cc2cccs2)N1 [Compound 591] | < 10
4 | CN(C(=O)[C@@H]1Cc2ccc(cc2)OCC(=O)N[C@@H](Cc2cccs2)C(=O)N[C@H](Cc2ccc(-c3ccccc3)cc2)C(=O)N[C@@H](CCc2ccccc2)C(=O)N1)[C@@H](Cc1ccccc1)C(=O)O [Compound 621] | < 10

Same assay, conditions: Table 2; read-out: Activity (IC50, inhibition of TNFα binding to TNFα R1/Fc)

Row | SMILES | IC50 [µM]
5 | O=C1COc2ccc(cc2)C[C@@H](C(=O)N[C@H](CO)C(=O)O)NC(=O)[C@H](CCc2ccccc2)NC(=O)[C@@H](Cc2ccc(-c3ccccc3)cc2)NC(=O)[C@H](Cc2ccc(-c3ccncc3)cc2)N1 [Compound 584] | < 10
6 | O=C1COc2ccc(cc2)C[C@@H](C(=O)N[C@@H](Cc2ccc(O)cc2)C(=O)O)NC(=O)[C@H](CCc2ccccc2)NC(=O)[C@@H](Cc2ccc(-c3ccccc3)cc2)NC(=O)[C@H](Cc2ccc(-c3ccncc3)cc2)N1 [Compound 585] | < 10
7 | O=C1COc2ccc(cc2)C[C@@H](C(=O)N[C@H](Cc2ccc(O)cc2)C(=O)O)NC(=O)[C@H](CCc2ccccc2)NC(=O)[C@@H](Cc2ccc(-c3ccccc3)cc2)NC(=O)[C@H](Cc2ccc(-c3ccncc3)cc2)N1 [Compound 586] | < 10
8 | O=C1COc2ccc(cc2)C[C@@H](C(=O)N[C@H](Cc2ccccc2)C(=O)O)NC(=O)[C@H](Cc2ccccc2F)NC(=O)[C@@H](Cc2ccc(-c3ccccc3)cc2)NC(=O)[C@H](Cc2cccs2)N1 [Compound 587] | < 10
9 | O=C1COc2ccc(cc2)C[C@@H](C(=O)N[C@@H](Cc2ccccc2)c2nnn[nH]2)NC(=O)[C@H](CCc2ccccc2)NC(=O)[C@@H](Cc2ccc(-c3ccccc3)cc2)NC(=O)[C@H](Cc2ccncc2)N1 [Compound 592] | < 10
10 | O=C(NCS(=O)(=O)O)[C@@H]1Cc2ccc(cc2)NC(=O)[C@H](O)[C@@H](O)C(=O)N[C@H](Cc2cccs2)C(=O)N[C@@H](Cc2ccc(-c3ccccc3)cc2)C(=O)N[C@H](CCc2ccccc2)C(=O)N1 [Compound 593] | < 10
11 | O=C1COc2ccc(cc2)C[C@@H](C(=O)NCCCS(=O)(=O)O)NC(=O)[C@H](CCc2ccccc2)NC(=O)[C@@H](Cc2ccc(-c3ccccc3)cc2)NC(=O)[C@H](Cc2ccncc2)N1 [Compound 599] | < 10
12 | CS(=O)(=O)NC(=O)[C@@H]1Cc2ccc(cc2)OCC(=O)N[C@@H](Cc2ccncc2)C(=O)N[C@H](Cc2ccc(-c3ccccc3)cc2)C(=O)N[C@@H](CCc2ccccc2)C(=O)N1 [Compound 600] | 10 to 30
13 | O=C1COc2ccc(cc2)C[C@@H](C(=O)NCCCS(=O)(=O)O)NC(=O)[C@H](CCc2ccccc2)NC(=O)[C@@H](Cc2ccc(-c3ccccc3)cc2)NC(=O)[C@H](Cc2cccs2)N1 [Compound 603] | > 100
14 | CN(CCS(=O)(=O)O)C(=O)[C@@H]1Cc2ccc(cc2)OCC(=O)N[C@@H](Cc2cccs2)C(=O)N[C@H](Cc2ccc(-c3ccccc3)cc2)C(=O)N[C@@H](CCc2ccccc2)C(=O)N1 [Compound 605] | < 10
15 | O=C1COc2ccc(cc2)C[C@@H](C(=O)N(CCS(=O)(=O)O)C(CO)(CO)CO)NC(=O)[C@H](CCc2ccccc2)NC(=O)[C@@H](Cc2ccc(-c3ccccc3)cc2)NC(=O)[C@H](Cc2ccncc2)N1 [Compound 606] | < 10
16 | O=C1COc2ccc(cc2)C[C@@H](C(=O)NCCS(=O)(=O)O)NC(=O)[C@H](CCc2ccccc2)NC(=O)[C@@H](Cc2ccc(-c3ccccc3)cc2)NC(=O)[C@H](Cc2ccc(-c3ccccc3)cc2)N1 [Compound 608] | 10 to 30
17 | O=C1COc2ccc(cc2)C[C@@H](C(=O)NCS(=O)(=O)O)NC(=O)[C@H](Cc2ccccc2F)NC(=O)[C@@H](Cc2ccc(-c3ccccc3)cc2)NC(=O)[C@H](Cc2cccs2)N1 [Compound 612] | 10 to 30
18 | COC(=O)[C@@H]1Cc2ccc(cc2)OCC(=O)N[C@@H](Cc2cccs2)C(=O)N[C@H](Cc2ccc(-c3ccccc3)cc2)C(=O)N[C@@H](CCc2ccccc2)C(=O)N1 [Compound 615] | > 100
19 | O=C1COc2ccc(cc2)C[C@@H](C(=O)NCS(=O)(=O)O)NC(=O)[C@H](CCc2ccccc2)NC(=O)[C@@H](Cc2ccc(-c3ccccc3)cc2)NC(=O)[C@H](Cc2ccc(-c3ccncc3)cc2)N1 [Compound 617] | < 10
20 | O=C1COc2ccc(cc2)C[C@@H](C(=O)N[C@H](CCc2ccccc2)C(=O)O)NC(=O)[C@H](CCc2ccccc2)NC(=O)[C@@H](Cc2ccc(-c3ccccc3)cc2)NC(=O)[C@H](Cc2ccncc2)N1 [Compound 619] | < 10
21 | O=C1COc2ccc(cc2)C[C@@H](C(=O)N[C@@H](CCc2ccccc2)C(=O)O)NC(=O)[C@H](CCc2ccccc2)NC(=O)[C@@H](Cc2ccc(-c3ccccc3)cc2)NC(=O)[C@H](Cc2ccc(-c3ccncc3)cc2)N1 [Compound 623] | < 10
22 | O=C1COc2ccc(cc2)C[C@@H](C(=O)N[C@H](CCc2ccccc2)C(=O)O)NC(=O)[C@H](CCc2ccccc2)NC(=O)[C@@H](Cc2ccc(-c3ccccc3)cc2)NC(=O)[C@H](Cc2ccc(-c3ccncc3)cc2)N1 [Compound 624] | < 10
23 | O=C1COc2ccc(cc2)C[C@@H](C(=O)O)NC(=O)[C@H](Cc2ccccc2F)NC(=O)[C@@H](Cc2ccc(-c3ccccc3)cc2)NC(=O)[C@H](Cc2cccs2)N1 [Compound 625] | < 10

Row | SMILES | IC50 [µM]
24 | O=C1COc2ccc(cc2)C[C@@H](C(=O)O)NC(=O)[C@H](Cc2cccc(F)c2)NC(=O)[C@@H](Cc2ccc(-c3ccccc3)cc2)NC(=O)[C@H](Cc2cccs2)N1 [Compound 626] | > 100
25 | O=C1COc2ccc(cc2)C[C@@H](C(=O)O)NC(=O)[C@H](Cc2ccc(F)cc2)NC(=O)[C@@H](Cc2ccc(-c3ccccc3)cc2)NC(=O)[C@H](Cc2cccs2)N1 [Compound 627] | > 100
26 | COc1ccc(C[C@@H]2NC(=O)[C@@H](Cc3ccc(-c4ccccc4)cc3)NC(=O)[C@H](Cc3cccs3)NC(=O)COc3ccc(cc3)C[C@@H](C(=O)O)NC2=O)cc1 [Compound 630] | 10 to 30
27 | O=C1COc2ccc(cc2)C[C@@H](C(=O)O)NC(=O)[C@H](Cc2ccc(-c3ccccn3)cc2)NC(=O)[C@@H](Cc2ccc(-c3ccccc3)cc2)NC(=O)[C@H](Cc2cccs2)N1 [Compound 632] | < 10
28 | O=C1COc2ccc(cc2)C[C@@H](C(=O)O)NC(=O)[C@H](Cc2ccc(-c3cccnc3)cc2)NC(=O)[C@@H](Cc2ccc(-c3ccccc3)cc2)NC(=O)[C@H](Cc2cccs2)N1 [Compound 633] | < 10
29 | O=C1COc2ccc(cc2)C[C@@H](C(=O)O)NC(=O)[C@H](Cc2ccc(-c3ccncc3)cc2)NC(=O)[C@@H](Cc2ccc(-c3ccccc3)cc2)NC(=O)[C@H](Cc2cccs2)N1 [Compound 634] | < 10
30 | CC(C)(C)c1ccc(C[C@@H]2NC(=O)[C@@H](Cc3ccc(-c4ccccc4)cc3)NC(=O)[C@H](Cc3cccs3)NC(=O)COc3ccc(cc3)C[C@@H](C(=O)O)NC2=O)cc1 [Compound 635] | < 10
31 | O=C1COc2ccc(cc2)C[C@@H](C(=O)O)NC(=O)[C@H](Cc2ccc(F)cc2)NC(=O)[C@@H](Cc2ccc(-c3ccccc3)cc2)NC(=O)[C@H](Cc2ccncc2)N1 [Compound 637] | < 10
32 | COc1cccc(C[C@@H]2NC(=O)[C@@H](Cc3ccc(-c4ccccc4)cc3)NC(=O)[C@H](Cc3ccncc3)NC(=O)COc3ccc(cc3)C[C@@H](C(=O)O)NC2=O)c1 [Compound 638] | < 10
33 | COc1ccc(C[C@@H]2NC(=O)[C@@H](Cc3ccc(-c4ccccc4)cc3)NC(=O)[C@H](Cc3ccncc3)NC(=O)COc3ccc(cc3)C[C@@H](C(=O)O)NC2=O)cc1 [Compound 639] | < 10
34 | O=C1COc2ccc(cc2)C[C@@H](C(=O)O)NC(=O)[C@H](Cc2c[nH]c3ccccc23)NC(=O)[C@@H](Cc2ccc(-c3ccccc3)cc2)NC(=O)[C@H](Cc2cccs2)N1 [Compound 640] | < 10
35 | N#Cc1cccc(C[C@H]2CC(=O)N[C@H](C(=O)O)Cc3ccc(cc3)OCC(=O)N[C@@H](Cc3cccs3)C(=O)N[C@H](Cc3ccc(-c4ccccc4)cc3)C(=O)N2)c1 [Compound 641] | < 10
36 | O=C1COc2ccc(cc2)C[C@@H](C(=O)O)NC(=O)[C@H](Cc2ccc(-c3ccccn3)cc2)NC(=O)[C@@H](Cc2ccc(-c3ccccc3)cc2)NC(=O)[C@H](Cc2ccncc2)N1 [Compound 643] | < 10
37 | O=C1COc2ccc(cc2)C[C@@H](C(=O)O)NC(=O)[C@H](Cc2ccc(-c3cccnc3)cc2)NC(=O)[C@@H](Cc2ccc(-c3ccccc3)cc2)NC(=O)[C@H](Cc2ccncc2)N1 [Compound 644] | < 10
38 | O=C1COc2ccc(cc2)C[C@@H](C(=O)O)NC(=O)[C@H](Cc2ccc(-c3ccncc3)cc2)NC(=O)[C@@H](Cc2ccc(-c3ccccc3)cc2)NC(=O)[C@H](Cc2ccncc2)N1 [Compound 645] | < 10
39 | O=C1COc2ccc(cc2)C[C@@H](C(=O)O)NC(=O)[C@H](Cc2ccccc2)NC(=O)[C@@H](Cc2ccc(-c3ccccc3)cc2)NC(=O)[C@H](Cc2ccncc2)N1 [Compound 646] | < 10
40 | O=C1COc2ccc(cc2)C[C@@H](C(=O)O)NC(=O)[C@H](Cc2cccc(C(F)(F)F)c2)NC(=O)[C@@H](Cc2ccc(-c3ccccc3)cc2)NC(=O)[C@H](Cc2ccncc2)N1 [Compound 648] | < 10
41 | O=C1COc2ccc(cc2)C[C@@H](C(=O)O)NC(=O)[C@H](Cc2ccccc2C(F)(F)F)NC(=O)[C@@H](Cc2ccc(-c3ccccc3)cc2)NC(=O)[C@H](Cc2ccncc2)N1 [Compound 649] | < 10
42 | O=C1COc2ccc(cc2)C[C@@H](C(=O)O)NC(=O)[C@H](Cc2ccc(Cl)cc2Cl)NC(=O)[C@@H](Cc2ccc(-c3ccccc3)cc2)NC(=O)[C@H](Cc2ccncc2)N1 [Compound 650] | < 10
